Results taken from ChEMBL document CHEMBL3507680, “University of Dundee, Gates Library screen for HepG2 cell viability”.

Experiment: Human HepG2 cell viability assay in 384 well format
Format: toxicity, cell-based
Design: dose 125 nL, time 70.5 hour; concentration not given beside the values
Settings: HepG2 cells, read-out: Inhibition

Row | Structure (SMILES) | cytotoxicity at 70.5 h [%]
1 | O=S(=O)(c1ccc(Cl)cc1)N1C[C@@H]2CCN[C@@H]2C1 | -6.26
2 | CNC(=O)CN1C(=O)CCC12CCCN(CCc1ccccc1)C2 (stereo not drawn) | 27.8
3 | O=C(CC1CCCC1)N1C[C@@H]2C[C@H]1CN2 | -3.6
4 | COCCN1C[C@@H]2CN(S(=O)(=O)c3cccs3)C[C@@H]2C1=O | -8.88
5 | CC(C)CN1C[C@@H]2CN(S(=O)(=O)c3cccs3)C[C@@H]2C1=O | -10.3
6 | O=C(c1cc(F)cc(F)c1)N1C[C@H]2CNC[C@H]2C1 | -13.4
7 | CCN1C(=O)CC[C@@H]2[C@H]1CCN2S(=O)(=O)c1cccs1 | -4.53
8 | O=C1[C@H]2CN(S(=O)(=O)c3cccs3)C[C@H]2CN1CC1CC1 | -2.27
9 | C[C@H]1C[C@H]2CN(C(=O)C3=CCCC3)CC[C@H]2O1 | -9.81
10 | CC(C)CNC(=O)N1C[C@@H]2CCCN[C@@H]2C1 | -8.84
11 | CC(C)C(=O)N1CCC2(CC1)NC(=O)[C@H]1CN(C(=O)N(C)C)C[C@H]12 | -11.8
12 | CC(=O)N1CCCC2(CCN(C(=O)c3nccnc3N)CC2)C1 | 26.1
13 | CC(=O)N1CCCC2(C1)CN(C(=O)C1CCCCC1)CCO2 (stereo not drawn) | 23.5
14 | CC(=O)N1CCC2(CCCN(C(=O)CCN3CCCCC3)C2)C1 (stereo not drawn) | 20.2
15 | CC(=O)N1CCCC2(CCN(c3ccccc3)C2=O)C1 (stereo not drawn) | 12.8
16 | CN(C)C(=O)CN1CCC2(CCN(C(=O)N(C)C)CC2)C1=O | 17
17 | CCOCC(=O)N1CCCC2(CCN(c3ccccc3)C2=O)C1 (stereo not drawn) | -8.08
18 | CN1C(=O)CCC12CCN(Cc1ccco1)CC2 | -12.2
19 | CC(C)NC(=O)N1CCCC2(CCN(c3ccccc3)C2=O)C1 (stereo not drawn) | -7.73
20 | O=C(c1ccc[nH]1)N1CCOCC2(C1)CN(c1ccccc1)C(=O)CO2 (stereo not drawn) | -9.1
21 | CC(C)CCN1C2(CCN(C(=O)C3(C)CC3)C2)c2ccccc2S1(=O)=O (stereo not drawn) | -9.44
22 | CS(=O)(=O)N1CCc2sc(C(=O)NCCc3ccccn3)cc21 | -10.9
23 | CN(C)C(=O)CNC(=O)c1cc2c(s1)CCN2S(C)(=O)=O | -10.7
24 | COCCNC(=O)c1cc2c(s1)CCN2S(C)(=O)=O | -6.66
25 | CC(C)CCN1C2(CCN(c3ncccn3)C2)c2ccccc2S1(=O)=O (stereo not drawn) | -11.6
26 | Fc1cnc(N2CCO[C@H]3CN(CC4CCOC4)C[C@H]32)nc1 (stereo partly drawn) | 26.2

Row | Structure (SMILES) | cytotoxicity at 70.5 h [%]
27 | Cc1ccc(CN2CC3(CCN(C(=O)Cc4ccc(Cl)cc4)C3)C2)o1 | -5.73
28 | CC[C@@H]1N(Cc2ccccn2)CCC[C@]12CCC(=O)N2CCOC | -5.82
29 | CC(C)NC(=O)[C@]12COC[C@H]1CN(Cc1cnn(C)c1)C2 | -4.74
30 | COC(=O)CCC(=O)N1CCC2(CN(Cc3ccccc3F)C2)C1 | -7.6
31 | CN(C)CCO[C@@H]1CC[C@H]2[C@H]1OCCN2C(=O)c1ccccc1F | -10.8
32 | Cn1cccc1CN1CCc2ncnc(-c3cccnc3)c2CC1 | -4.34
33 | CN(C)CCO[C@@H]1CC[C@H]2[C@H]1OCCN2C(=O)c1ccncc1 | -3.32
34 | Cc1cccc(C(=O)N2CCO[C@H]3[C@H](OCCN(C)C)CC[C@@H]32)n1 | -3.76
35 | CC1=N[C@@]2(CC[C@@H]3CN(C(=O)NC(C)C)C[C@@H]32)C(=O)N1CC1CC1 | 1.82
36 | COCCN1C[C@@H](C)[C@@]2(COCCN(C(=O)c3ccoc3)C2)C1 | 1.95
37 | COCC(=O)N1CC[C@H]2OCC[C@@]2(c2nc(C)no2)C1 | 12.4
38 | CN(C)c1ncnc2c1CCN(c1cc(C(F)(F)F)ncn1)CC2 | -1.26
39 | CO[C@@H]1CCN(S(=O)(=O)c2cn(C)cn2)[C@H]1Cc1ccccc1 | -1.49
40 | CO[C@H]1CCN(S(=O)(=O)c2cn(C)cn2)[C@H]1Cc1ccncc1 | -0.309
41 | Cn1cc(CN2CCc3ncn(C)c3C2COCc2ccccc2)cn1 (stereo not drawn) | 2.01
42 | Cn1cnc2c1C(COCc1cccnc1)N(Cc1ccccc1)CC2 (stereo not drawn) | 2.08
43 | CCN1C(=O)[C@]2(CC[C@@H]3CN(C(=O)NCC(C)C)C[C@@H]32)N=C1C | -2.72
44 | CC1=N[C@@]2(CC[C@@H]3CN(C(=O)NC(C)C)C[C@@H]32)C(=O)N1CC(C)C | -3.41
45 | Cc1nc(COCc2cnc3n2CCN(C(=O)C2CC2)C3C)cs1 (stereo not drawn) | 11.4
46 | O=C(NCC1CCCCC1)N1C[C@@H]2C[C@H]1CN2 | -7.03
47 | CCN1CCC12CCN(C(=O)c1cc(C)on1)C2 (stereo not drawn) | -2.64
48 | Cc1cc(C(=O)N2CCC3(CCN3Cc3ccc(F)cc3)C2)no1 (stereo not drawn) | -3.92
49 | O=C1CCC2(CCCN(Cc3ccccc3F)C2)N1CC1CC1 (stereo not drawn) | -2.34
50 | O=S(=O)(c1cccs1)N1CC[C@H]2[C@H]1CCN2c1ncccn1 | -4.67
51 | CCN1CC[C@@]2(C(=O)N3CCOCC3)CCN(C(=O)CC(C)C)CC[C@@H]12 | -2.66
52 | CC(C)CN1CC[C@@H]2[C@@H]1CCN2S(=O)(=O)c1cccs1 | -18

Row | Structure (SMILES) | cytotoxicity at 70.5 h [%]
53 | CCN1C(=O)C(c2ccccc2)CC12CCN(CCO)CC2 (stereo not drawn) | -13.9
54 | COCc1nn(C)c2c1CCN(Cc1cnn(C)c1)C2 | -5.93
55 | CCN1CC[C@@]2(C(=O)N3CCCC3)CCN(S(C)(=O)=O)CC[C@@H]12 | -8.95
56 | CCN1CC[C@@]2(C(=O)N(C)C)CCN(C(=O)Cc3ccccc3)CC[C@@H]12 | -8.1
57 | CCN1CC[C@@]2(C(=O)N3CCOCC3)CCN(S(=O)(=O)CC)CC[C@@H]12 | 3.2
58 | COCCN1CCC2(CC1)CN(C(=O)c1cccs1)CCO2 | 33.9
59 | CN(C)C(=O)CN1CCC2(CCN(CC3CC3)CC2)C1=O | 9.87
60 | c1coc(CN2CCC3(CC2)COC(COCC2CC2)C3)c1 (stereo not drawn) | 15.1
61 | CN1C(=O)CCCC12CCCN(Cc1cccs1)C2 (stereo not drawn) | -6.68
62 | COCCN1CCC2(CC1)CN(C(=O)c1ccccc1)CCO2 | -5.3
63 | CN(C)CC(=O)N1CCCC2(CCN(c3ccccc3)C2=O)C1 (stereo not drawn) | -9.67
64 | N#Cc1ccc(C(=O)N2CC[C@H]3[C@H]2CCN3CC2CC2)cc1 | -10.6
65 | C[C@@H]1CN(CCc2ccccc2)C[C@]12CCN(CC(=O)N(C)C)C2=O | -12.6
66 | O=C(Cc1cccc(F)c1)N1C[C@H]2CN(Cc3ccccn3)C[C@H]2C1 | -6.98
67 | COCCC(=O)N1CCOCC2(CCN(Cc3cccs3)C2)C1 (stereo not drawn) | -12.3
68 | CC1c2ncc(CNC(=O)C3CC3)n2CCN1CC1CCC1 (stereo not drawn) | -10.3
69 | O=C([C@H]1C[C@@H]2CCN(c3cccc(F)c3)C[C@H]2O1)N1CCCCO1 | -13.4
70 | CC[C@@H]1N(Cc2ccc(OC)cc2)CCC[C@]12CCC(=O)N2CCOC | 16.8
71 | CS(=O)(=O)NC[C@@H]1OC[C@H]2CN(Cc3ccsc3)CC[C@H]21 | 18.6
72 | CC[C@@H]1N(Cc2ccc(F)cc2)CCC[C@]12CCC(=O)N2CCOC | 10.3
73 | Fc1cnc(N2CCO[C@H]3CN(CC4CCCCC4)C[C@H]32)nc1 | 17.9
74 | CN(C)CCO[C@@H]1CC[C@H]2[C@H]1OCCN2C(=O)c1ccc(F)cc1 | -1.79
75 | CC[C@@H]1N(Cc2nccs2)CCC[C@]12CCC(=O)N2CCOC | -2.16
76 | C[C@H]1CN(C)C[C@@]12COCCN(C(=O)Cc1ccccc1)C2 | 0.777
77 | c1csc(CN2CCCn3cnc(COCC4CC4)c3C2)n1 | -0.793
78 | CCN1C(=O)C(c2ccccc2)CC12CCN(Cc1cccnc1)CC2 (stereo not drawn) | -7.6

Row | Structure (SMILES) | cytotoxicity at 70.5 h [%]
79 | COc1ccc(CN2C[C@H]3C[C@H](CN(C)C)O[C@H]3C2)cc1 | -5.86
80 | Cc1cnc(N2CC3(CCN(Cc4cccnc4)C3)C2)nc1 | -13.4
81 | COCCN1CCC2(CC1)CN(C(=O)Cc1cccnc1)CCO2 | -5.95
82 | O=C1[C@H]2CN(Cc3ccccc3)C[C@H]2CN1CCN1CCCC1 | -8.49
83 | Fc1cccc(CN2C[C@@H]3CN(Cc4ccccn4)C[C@@H]3C2)c1 | -5.09
84 | O=C1[C@H]2CN(Cc3ccc(F)cc3)C[C@H]2CN1CCN1CCCC1 | 12.5
85 | Cc1ccc(CN2Cc3ccnn3CC(C(=O)NCC3CC3)C2)o1 (stereo not drawn) | -13.3
86 | CN(C)CCN1CCOCC12CCN(C(=O)C1CC1)CC2 | -10.1
87 | CN(C)CCOCc1nnc2n1CCN(Cc1ccoc1)CC2 | 36.2
88 | CN(C)CCOCc1nnc2n1CCN(Cc1ccc(F)cc1)CC2 | 23.8
89 | c1cncc(-c2ncnc3c2CCN(Cc2ccsc2)CC3)c1 | 19.2
90 | CN(C)C(=O)COCC1CN(Cc2cccs2)Cc2ncn(C)c21 (stereo not drawn) | 17.3
91 | CN(C)C(=O)COCC1CN(C2CCC2)Cc2ncn(C)c21 (stereo not drawn) | 22.5
92 | c1cncc(-c2ncnc3c2CCN(Cc2cccs2)CC3)c1 | 16.4
93 | CN(C)C(=O)COCC1CN(Cc2ccoc2)Cc2ncn(C)c21 (stereo not drawn) | -3.96
94 | c1cnc(N2CCO[C@H]3CN(CC4CC4)C[C@H]32)nc1 | -8.99
95 | O=C(NCc1ccccn1)[C@]12COC[C@H]1CN(Cc1ccccc1F)C2 | -7.42
96 | O=C(c1cccnc1)N1CCN2C[C@H](Oc3cncnc3)C[C@H]2C1 | -1.31
97 | c1ccc(NCc2cn3c(n2)CN(Cc2cccs2)CC3)nc1 | 8.31
98 | c1cc(CN2CCCn3cnc(COCC4CC4)c3C2)ccn1 | -2.95
99 | CN(Cc1cccnc1)Cc1cn2c(n1)CN(C1CCOC1)CC2 (stereo not drawn) | -6.14
100 | O=C(NCc1ccccn1)[C@]12COC[C@H]1CN(Cc1cccnc1)C2 | -7.77
101 | Cc1ccc(CN2CC[C@@H]3[C@@H](CO[C@H]3CN3CCN(C)CC3)C2)s1 | 14.3
102 | Cc1ccc(CN2CC[C@@H]3[C@@H](CO[C@H]3CN3CCN(C)CC3)C2)cc1 | -0.515
103 | CN1CCN(Cc2cnc3n2CCN(Cc2cccnc2)CC3)CC1 | -1.41
